Measurements taken from patent US9428464B2, “Kynurenine-3-monooxygenase inhibitors, pharmaceutical compositions, and methods of use thereof” (CHDI Foundation, Inc., priority 2011, dated 2016).

Tested on: KMO
Test: KMO activity assay: L-Kynurenine hydroxylation to 3-Hydroxy-Kynurenine, quantified by LC/MS
Type: biochemical
Details: compound at 10 uM; footnote: some portion of activity of amides may be due to contribution of acid precursor
Method in brief: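 Enzyme: KMO from mitochondria isolated from CHO cells expressing GST-His-KMO, with L-kynurenine as substrate (stock 10 mM in 100 mM potassium phosphate, pH 7.4). Conversion to 3-hydroxy-kynurenine quantified by LC/MS multiple reaction monitoring; compound stocks 10 mM in DMSO.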

SMILES | % Inhibition at 10 uM [%]
O=C(Nc1cccnc1)c1cc(-c2ccc(Cl)cc2)ncn1 [6-(4-Chloro-phenyl)-pyrimidine-4-carboxylic acid pyridin-3-yl-amide] | 67.93
O=C(Nc1cncnc1)c1cc(-c2ccc(Cl)cc2)ncn1 [6-(4-Chloro-phenyl)-pyrimidine-4-carboxylic acid pyrimidin-5-ylamide] | 56.49
C[C@H](NC(=O)c1cc(-c2cc(Cl)ccc2F)ncn1)c1ccccc1 [6-(5-Chloro-2-fluoro-phenyl)-pyrimidine-4-carboxylic acid ((S)-1-phenyl-ethyl)-amide] | 68.66
O=C(Nc1cccnc1)c1cc(-c2cc(Cl)ccc2F)ncn1 [6-(5-Chloro-2-fluoro-phenyl)-pyrimidine-4-carboxylic acid pyridin-3-yl-amide] | 84.21
O=C(O)c1cc(-c2ccc3ccccc3c2)ncn1 [6-Naphthalen-2-yl-pyrimidine-4-carboxylic acid] | 96
N[C@@H](CCCCNC(=O)c1cc(-c2ccc(Cl)c(Cl)c2)ncn1)C(=O)O [(2S)-2-amino-6-{[6-(3,4-dichlorophenyl)pyrimidin-4-yl]formamido}hexanoic acid] | 85
O=C1NC(=O)[C@@H]2CN(C(=O)c3cc(-c4ccc(Cl)c(Cl)c4)ncn3)C[C@H]12 [(3aS,6aR)-5-[6-(3,4-Dichloro-phenyl)-pyrimidine-4-carbonyl]-tetrahydro-pyrrolo[3,4-c]pyrrole-1,3-dione] | 95.73
O=C(c1cc(-c2ccc(Cl)c(Cl)c2)ncn1)N1CCc2ccc(Cl)cc21 [(6-Chloro-2,3-dihydro-indol-1-yl)-[6-(3,4-dichloro-phenyl)-pyrimidin-4-yl]-methanone] | 98.22
N[C@H]1CCN(C(=O)c2cc(-c3ccc(Cl)c(Cl)c3)ncn2)C1 [((S)-3-amino-pyrrolidin-1-yl)-[6-(3,4-dichloro-phenyl)-pyrimidin-4-yl]-methanone] | 93.99
NC(=O)[C@H]1CCCN1C(=O)c1cc(-c2ccc(Cl)c(Cl)c2)ncn1 [(R)-1-[6-(3,4-Dichloro-phenyl)-pyrimidine-4-carbonyl]-pyrrolidine-2-carboxylic acid amide] | 101
O=C(N[C@H](CO)C(=O)O)c1cc(-c2ccc(Cl)c(Cl)c2)ncn1 [(R)-2-{[6-(3,4-Dichloro-phenyl)-pyrimidine-4-carbonyl]-amino}-3-hydroxy-propionic acid] | 91.12
NC(=O)[C@@H]1CCCN1C(=O)c1cc(-c2ccc(Cl)c(Cl)c2)ncn1 [(S)-1-[6-(3,4-Dichloro-phenyl)-pyrimidine-4-carbonyl]-pyrrolidine-2-carboxylic acid amide] | 99.05
O=C(N[C@@H](CO)C(=O)O)c1cc(-c2ccc(Cl)c(Cl)c2)ncn1 [(S)-2-{[6-(3,4-Dichloro-phenyl)-pyrimidine-4-carbonyl]-amino}-3-hydroxy-propionic acid] | 101.22
C[C@H](NC(=O)c1cc(-c2ccc(Cl)c(Cl)c2)ncn1)C(=O)O [(S)-2-{[6-(3,4-Dichloro-phenyl)-pyrimidine-4-carbonyl]-amino}-propionic acid] | 100.865
O=S(=O)(Nc1cc(-c2ccc(Cl)c(Cl)c2)ccn1)c1ccccc1 [N-[4-(3,4-dichlorophenyl)pyridin-2-yl]benzenesulfonamide] | 17
Cc1ccc(S(=O)(=O)Nc2cc(-c3ccc(Cl)c(Cl)c3)ncn2)c(C)c1 [N-[6-(3,4-dichlorophenyl)pyrimidin-4-yl]-2,4-dimethylbenzene-1-sulfonamide] | 56
O=S(=O)(Nc1cc(-c2ccc(Cl)c(Cl)c2)ncn1)c1ccccc1F [N-[6-(3,4-dichlorophenyl)pyrimidin-4-yl]-2-fluorobenzene-1-sulfonamide] | 103
O=S(=O)(Nc1cc(-c2ccc(Cl)c(Cl)c2)ncn1)c1cccc(OC(F)(F)F)c1 [N-[6-(3,4-dichlorophenyl)pyrimidin-4-yl]-3-(trifluoromethoxy)benzene-1-sulfonamide] | 100
O=S(=O)(Nc1cc(-c2ccc(Cl)c(Cl)c2)ncn1)c1cccc(F)c1 [N-[6-(3,4-dichlorophenyl)pyrimidin-4-yl]-3-fluorobenzene-1-sulfonamide] | 102

SMILES | % Inhibition at 10 uM [%]
CN(c1cc(-c2ccc(Cl)c(Cl)c2)ncn1)S(=O)(=O)c1ccccc1 [N-[6-(3,4-dichlorophenyl)pyrimidin-4-yl]-N-methylbenzenesulfonamide] | 27
O=S(=O)(Nc1cc(-c2ccc(F)c(Cl)c2)ncn1)c1ccccc1 [N-[6-(3-Chloro-4-fluoro-phenyl)-pyrimidin-4-yl]-benzenesulfonamide] | 98
O=C(NS(=O)(=O)c1ccccc1)c1cc(-c2cccc(Cl)c2)ncn1 [N-[6-(3-Chloro-phenyl)-pyrimidine-4-carbonyl]-benzenesulfonamide] | 100.67
CS(=O)(=O)NC(=O)c1cc(-c2cccc(Cl)c2)ncn1 [N-[6-(3-Chloro-phenyl)-pyrimidine-4-carbonyl]-methanesulfonamide] | 101.58
O=S(=O)(Nc1cc(-c2ccc(F)c(Cl)c2)ncn1)c1ccccc1F [N-[6-(3-chloro-4-fluorophenyl)pyrimidin-4-yl]-2-fluorobenzene-1-sulfonamide] | 100
CC(=O)N[C@@H]1CCN(C(=O)c2cc(-c3ccc(Cl)c(Cl)c3)ncn2)C1 [N-{(R)-1-[6-(3,4-Dichloro-phenyl)-pyrimidine-4-carbonyl]-pyrrolidin-3-yl}-acetamide] | 98.55
CN(C)CCC(=O)N[C@H]1CCN(C(=O)c2cc(-c3ccc(Cl)c(Cl)c3)ncn2)C1 [N-{(S)-1-[6-(3,4-Dichloro-phenyl)-pyrimidine-4-carbonyl]-pyrrolidin-3-yl}-3-dimethylamino-propionamide] | 91.785
CC(=O)N[C@H]1CCN(C(=O)c2cc(-c3ccc(Cl)c(Cl)c3)ncn2)C1 [N-{(S)-1-[6-(3,4-Dichloro-phenyl)-pyrimidine-4-carbonyl]-pyrrolidin-3-yl}-acetamide] | 100.27
CN1CCN(C(=O)c2cc(-c3ccc(Cl)c(Cl)c3)ncn2)CC1 [[6-(3,4-Dichloro-phenyl)-pyrimidin-4-yl]-(4-methyl-piperazin-1-yl)-methanone] | 94.86
O=C(c1cc(-c2ccc(Cl)c(Cl)c2)ncn1)N1CCc2ccc(F)cc21 [[6-(3,4-Dichloro-phenyl)-pyrimidin-4-yl]-(6-fluoro-2,3-dihydro-indol-1-yl)-methanone] | 100.71
C[C@@H]1CN(C(=O)c2cc(-c3ccc(Cl)c(Cl)c3)ncn2)C[C@H](C)N1.O=C(O)C(F)(F)F [[6-(3,4-Dichloro-phenyl)-pyrimidin-4-yl]-((3S,5R)-3,5-dimethyl-piperazin-1-yl)-methanone, trifluoro-acetic acid salt] | 95.92
O=C(c1cc(-c2ccc(Cl)c(Cl)c2)ncn1)N1CCC[C@@H](O)C1 [[6-(3,4-Dichloro-phenyl)-pyrimidin-4-yl]-((R)-3-hydroxy-piperidin-1-yl)-methanone] | 99.86
O=C(c1cc(-c2ccc(Cl)c(Cl)c2)ncn1)N1CC[C@@H](O)C1 [[6-(3,4-Dichloro-phenyl)-pyrimidin-4-yl]-((R)-3-hydroxy-pyrrolidin-1-yl)-methanone] | 101.49
O=C(c1cc(-c2ccc(Cl)c(Cl)c2)ncn1)N1CCC[C@H](O)C1 [[6-(3,4-Dichloro-phenyl)-pyrimidin-4-yl]-((S)-3-hydroxy-piperidin-1-yl)-methanone] | 99.98
O=C(c1cc(-c2ccc(Cl)c(Cl)c2)ncn1)N1CCC(C(=O)N2CCOCC2)C1 (centres unmarked) [[6-(3,4-Dichloro-phenyl)-pyrimidin-4-yl]-[3-(morpholine-4-carbonyl)-pyrrolidin-1-yl]-methanone] | 90.83
O=C(c1cc(-c2ccc(Cl)c(Cl)c2)ncn1)N1CCN(C(=O)N2CCOCC2)CC1 [[6-(3,4-Dichloro-phenyl)-pyrimidin-4-yl]-[4-(morpholine-4-carbonyl)-piperazin-1-yl]-methanone] | 40.38
O=C(c1cc(-c2ccc(Cl)c(Cl)c2)ncn1)N1CCNCC1 [[6-(3,4-dichloro-phenyl)-pyrimidin-4-yl]-piperazin-1-yl-methanone] | 71.34
CCCCOC(=O)c1cc(-c2ccc(Cl)c(Cl)c2)ncn1 [butyl 6-(3,4-dichlorophenyl)pyrimidine-4-carboxylate] | 100
CC(C)OC(=O)c1cc(-c2ccc(Cl)c(Cl)c2)ncn1 [propan-2-yl 6-(3,4-dichlorophenyl)pyrimidine-4-carboxylate] | 100
